Test systems include MDA-N; DLD-1 colon; DMS 114 small cell lung; DMS 273 small cell lung; HOP-18 NSCLC; KM20L2 colon; LXFL 529 NSCLC; M19-MEL melanoma; SNB-78 CNS; XF 498 CNS; RXF-631 renal.
Holding throughout (assay): inhibition of tumour cell growth, NCI panel, 48 h

These results are taken from PubChem BioAssay (NCI).

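Five compound concentrations were applied to cells in 96-well plates for 48 hours; endpoints were derived by simple linear interpolation of the resulting dose-response curve. TGI marks complete inhibition of growth.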 Where a SMILES comes first, the peptide text is derived from it. Side-chain parts run from the residue outwards. The star is where a group is joined. Cbz = O=C(OCc1ccccc1)*; Boc = CC(C)(C)OC(=O)*

The molecule `COc1ccc(N2C(=O)C3c4[nH]c5ccccc5c4C4c5ccccc5CC4C3C2=O)cc1` (stereo unspecified) returned a TGI in the test on MDA-N above 100 µM.

Turning to `N#Cc1ccc(C2Oc3ccc(Cl)cc3C=C2[N+](=O)[O-])cc1` (stereo unspecified), in the test with MDA-N, the TGI turned out to be 3.19 µM.

`C[C@@]12C[C@@H](c3ccccc3O1)N1Cc3ccccc3CSC1=N2` had a TGI with MDA-N above 100 µM.

In the test on MDA-N, `CC(C)(C)OC(=O)n1c(Cl)c(C=O)c2ccccc21` gave a TGI above 100 µM.

In the test with MDA-N, `COc1ccc(-c2nc(-c3cnccn3)n(Cc3ccccc3)n2)cc1` showed a TGI above 100 µM.

In the test on MDA-N, `COc1cc2[nH]c(=O)c3cc(C)cc4c(Cl)nc(c1OC)c2c43` returned a TGI above 100 µM.

Regarding `CN(/N=C/c1ccc(Cl)cc1)C1=NCCCCN1`, the TGI in the test with MDA-N was above 100 µM.

`CC(=O)N1C(Nc2cccc3nc(C)ccc23)CCN1c1ccccc1` (stereo unspecified): in the test on MDA-N, the TGI is above 10 µM.

For the molecule `O=C1CC(C(COCc2ccccc2)OCc2ccccc2)CC(=O)N1` (stereo unspecified), the TGI in the test on MDA-N was above 100 µM.

In the test on MDA-N, `S=C(N/N=C(\C(=N/NC(=S)N1CCCCC1)c1ccccn1)c1ccccn1)N1CCCCC1` had a TGI above 100 µM.

In the test on MDA-N, `CC(C)(C)OC(=O)NC(CCCCNC(=O)CNC(=O)OCc1ccccc1)C(=O)NC(CCCCNC(=O)CNC(=O)OCc1ccccc1)C(=O)NC(CCCCNC(=O)CNC(=O)OCc1ccccc1)C(=O)NC(CCCCNC(=O)CNC(=O)OCc1ccccc1)C(=O)O` (stereo unspecified) (Boc-K([Gly-Cbz])K([Gly-Cbz])K([Gly-Cbz])K([Gly-Cbz])-OH; configuration not given here) registered a TGI above 100 µM.

For `COc1ccc(C2=C(Cl)c3cc(OC)c(OC)cc3C2)cc1OC`, the TGI in the test with DLD-1 colon, in the test with DMS 114 small cell lung, in the test on DMS 273 small cell lung, with HOP-18 NSCLC, in the test on KM20L2 colon and in the test with LXFL 529 NSCLC was above 100 µM throughout. For the same molecule, the TGI in the test with M19-MEL melanoma, with SNB-78 CNS and with XF 498 CNS was above 100 µM each time.

Consider `Cc1cn([C@@H]2C[C@H](CO)[C@@H]2O)c(=O)[nH]c1=O`, for which the TGI in the test with MDA-N is above 100 µM.

Consider `CC(=O)c1[nH]c(Nc2ccc(C)cc2)c(C(=S)Nc2ccccc2)c1N`, for which, in the test with MDA-N, the TGI was 37.2 µM.

For the molecule `CCOC1NC(/N=C/c2ccc(OC)cc2)=C(C#N)C1C#N` (stereo unspecified), the TGI in the test with MDA-N was above 100 µM.

`OC(C1CCCCCCCCCC1)C(O)C1CCCCCCCCCC1` (stereo unspecified) came in with a TGI with MDA-N above 100 µM.

`O=C1O[C@H]2C3C4CCC(C4[C@@H]2I)[C@H]13` (stereo partly specified) returned a TGI with MDA-N above 100 µM.

As for `COc1cc(C(O)C(=O)c2cnc3cc([N+](=O)[O-])ccc3n2)ccc1O` (stereo unspecified), the TGI in the test on DLD-1 colon, in the test with DMS 114 small cell lung, in the test on DMS 273 small cell lung, in the test with KM20L2 colon, in the test with LXFL 529 NSCLC and in the test with M19-MEL melanoma was above 100 µM throughout. Also, the TGI in the test with RXF-631 renal and in the test with XF 498 CNS was above 100 µM throughout.

`Cc1c2cccc-2c(OCCOC(=O)n2ccnc2)cc2c1[nH]c1ccccc12` gave a TGI in the test with MDA-N of 17.5 µM.

For the molecule `COc1cc2c(c(OC)c1OC)-c1ccc(SC)c(=O)cc1[C@@H](NCc1cccc([N+](=O)[O-])c1)CC2`, the TGI in the test with DLD-1 colon was above 100 µM; in the test on HOP-18 NSCLC, above 100 µM; in the test with KM20L2 colon it was below 0.01 µM; with LXFL 529 NSCLC, above 100 µM; in the test with M19-MEL melanoma, above 100 µM; with SNB-78 CNS, above 100 µM.

`COc1ccc(C2C(C#N)=C(S)N(C3OC(CO)C(O)C(O)C3O)C(C)=C2C(C)=O)cc1` (stereo unspecified): the TGI in the test with MDA-N is above 100 µM.

For the molecule `COc1ccc([C@H]2c3cc4c(cc3OC(O)(CO)[C@H]2C(=O)O)OCO4)c(OC)c1` (stereo partly specified) (tested in a mixture with another compound), the TGI in the test on DLD-1 colon, in the test with DMS 114 small cell lung, in the test on DMS 273 small cell lung, in the test with HOP-18 NSCLC, with KM20L2 colon and with LXFL 529 NSCLC was above 100 µM in each case. Also, the TGI in the test with M19-MEL melanoma, in the test with SNB-78 CNS and with XF 498 CNS was above 100 µM in each case.

For the molecule `CC(=O)c1ccc2c3c1O[C@H]1c4[nH]c5ccccc5c4C[C@@]4(O)[C@@H](C2)N(CC2CC2)CC[C@]314`, the TGI in the test with MDA-N worked out at 34.6 µM.

With `Cc1ccc(N=C2SC(=NN(C)C)SC2=Nc2ccc(C)cc2)cc1`, the TGI in the test on MDA-N is above 100 µM.

For `Nc1ccccc1OCCCOc1ccccc1N`, the TGI with MDA-N was above 100 µM.

In turn, `COc1ccc(Cn2c3ccc([N+](=O)[O-])cc3c(=O)n2Cc2ccccn2)cc1` gave a TGI with MDA-N above 100 µM.

Molecule `CN(C)CC1CCCc2ccccc2C1=O` (stereo unspecified) returned a TGI in the test on MDA-N of 3.07 µM.

In turn, `CC(C)C1=C(Cc2ccccc2)C(=O)O/C1=C\c1ccc(O)c(Cl)c1` displayed a TGI in the test with MDA-N of 30.1 µM.

The molecule `C1=CN2C[n+]3ccc4ccccc4c3N=C2c2ccccc21` came in with a TGI with MDA-N of 7.59 µM.

On to `COc1ccc(CCCN2c3ccccc3Sc3ccccc32)cc1`, for which the TGI with DLD-1 colon, in the test on DMS 114 small cell lung, in the test on DMS 273 small cell lung, in the test on HOP-18 NSCLC, with KM20L2 colon and with LXFL 529 NSCLC was above 100 µM throughout. The TGI in the test with SNB-78 CNS and with XF 498 CNS was above 100 µM each time.

As for `CCn1c(=O)c2c3ccc(OC)cc3[nH]c2c2ccc(OC)cc21`, in the test on MDA-N, the TGI was above 100 µM.
